Measured values published in patent publication US20200256853A1, “Models of Reconstructed Sensitive Skin” (Laboratoires Expanscience, priority 2017, published 2020).

Columns and labels:
Assay type in all cases: cell-based
[1] = test system: reconstructed Sensitive Skin model (reconstructed human epidermises treated with 0.6% lactic acid); experiment: Determinations of released inflammatory mediators (ELISA) in reconstructed Sensitive Skin model, Example 3; conditions: for Released IL1-alpha Change / Released IL8 Change / Released PGE2 Change: change vs. lactic acid
Experimental: (§1) Reconstructed human epidermises were obtained from the keratinocytes of a […] donor using the method derived from Poumay et al. (Arch Dermatol Res 2004; 296:203-11). After 2 days of immersion culture, the reconstructed human epidermises were cultured at the air/liquid interface for 10 days.
(§2) Epidermises at differentiation day 10 was treated or not (control) systemically with the test compounds and incubated for 24 hours.
(§3) The amount of inflammatory mediators IL-1alpha (IL1α), IL-8 and PGE2 present in skin culture supernatants was evaluated using ELISA kits (R&D Systems). • Evaluations of intracellular inflammatory markers IL-1α, IL8 and IL1-RA (n=2)

[2] = test system: reconstructed Sensitive Skin model (reconstructed human epidermises treated with 0.6% lactic acid); experiment: Determination of PUFAs (GC/MS) in reconstructed Sensitive Skin model, Example 3; conditions: for C18:1 Change / C18:2 LA Change / C20:4 AA Change: change vs. lactic acid
Experimental: Screening of polyunsaturated fatty acids (PUFAs) expressed by the epidermis was carried out by GC/MS analysis of samples obtained after grinding the epidermises (n=2).
The amounts were normalized by C16:0 (palmitic acid), which is representative of the overall lipid content of the epidermis.
as §1, §2
(§4) Same protocol as described in Example 2. • Determination of Poly-Unsaturated Fatty Acids (PUFAs) (n=2)
Same protocol as described in Example 2.

[3] = test system: reconstructed Sensitive Skin model (reconstructed human epidermises treated with 0.6% lactic acid); experiment: Intracellular measurements of inflammatory mediators (ELISA) in reconstructed Sensitive Skin model, Example 3; conditions: for IL1RA/IL1-alpha ratio Change / Intracellular IL1-alpha Change / Intracellular IL1RA Change / Intracellular IL8 Change: change vs. lactic acid
Experimental: Intracellular amounts of IL-1α, IL8 and IL1-RA were determined by ELISA (R&D Systems) in ground epidermis (n=2).
as §1, §2, §3, §4

SMILES: CC1(C)[C@@H](O[C@H]2O[C@H](C(=O)[O-])[C@@H](O)[C@H](O)[C@H]2O[C@@H]2O[C@H](C(=O)[O-])[C@@H](O)[C@H](O)[C@H]2O)CC[C@]2(C)[C@H]3C(=O)C=C4[C@@H]5C[C@@](C)(C(=O)O)CC[C@]5(C)CC[C@@]4(C)[C@]3(C)CC[C@@H]12.[K+].[K+] [GLY, Dipotassium glycyrrhizinate]
- Released IL1-alpha Mean ± Standard deviation ([1]; GLY 0.005% + lactic acid 0.6%): 28 ± 10 pg/mL
- Released IL8 Mean ± Standard deviation ([1]; GLY 0.005% + lactic acid 0.6%): 211 ± 41 pg/mL
- Released PGE2 Mean ± Standard deviation ([1]; GLY 0.005% + lactic acid 0.6%): 94 ± 36 pg/mL
- Released IL1-alpha Change ([1]; GLY 0.005% + lactic acid 0.6%): −59%
- Released IL8 Change ([1]; GLY 0.005% + lactic acid 0.6%): +1%
- Released PGE2 Change ([1]; GLY 0.005% + lactic acid 0.6%): −52%
- Released IL1-alpha Mean ± Standard deviation ([1]; GLY 0.01% + lactic acid 0.6%): 35 ± 16 pg/mL
- Released IL8 Mean ± Standard deviation ([1]; GLY 0.01% + lactic acid 0.6%): 244 ± 138 pg/mL
- Released PGE2 Mean ± Standard deviation ([1]; GLY 0.01% + lactic acid 0.6%): 137 ± 83 pg/mL
- Released IL1-alpha Change ([1]; GLY 0.01% + lactic acid 0.6%): −49%
- Released IL8 Change ([1]; GLY 0.01% + lactic acid 0.6%): +17%
- Released PGE2 Change ([1]; GLY 0.01% + lactic acid 0.6%): −31%
- Release of IL1α induced by lactic acid (in words) ([1]; concentration not given): significantly inhibited
- Release of PGE2 induced by lactic acid (in words) ([1]; concentration not given): significantly inhibited
- C18:1 Mean ± SD, amount normalized to C16:0 ([2]; GLY 0.005% + lactic acid 0.6%): 0.2785
- C18:2 LA Mean ± SD, amount normalized to C16:0 ([2]; GLY 0.005% + lactic acid 0.6%): 0.1600
- C20:4 AA Mean ± SD, amount normalized to C16:0 ([2]; GLY 0.005% + lactic acid 0.6%): 0.0435
- C18:1 Change ([2]; GLY 0.005% + lactic acid 0.6%): −28%
- C18:2 LA Change ([2]; GLY 0.005% + lactic acid 0.6%): −25%
- C20:4 AA Change ([2]; GLY 0.005% + lactic acid 0.6%): −24%
- C18:1 Mean ± SD, amount normalized to C16:0 ([2]; GLY 0.01% + lactic acid 0.6%): 0.2680
- C18:2 LA Mean ± SD, amount normalized to C16:0 ([2]; GLY 0.01% + lactic acid 0.6%): 0.1440
- C20:4 AA Mean ± SD, amount normalized to C16:0 ([2]; GLY 0.01% + lactic acid 0.6%): 0.0395
- C18:1 Change ([2]; GLY 0.01% + lactic acid 0.6%): −31%
- C18:2 LA Change ([2]; GLY 0.01% + lactic acid 0.6%): −32%
- C20:4 AA Change ([2]; GLY 0.01% + lactic acid 0.6%): −31%
- IL1RA/IL1-alpha ratio Mean ± SD ([3]; GLY 0.005% + lactic acid 0.6%): 25.6 ± 1.29
- Intracellular IL1-alpha Mean ± SD ([3]; GLY 0.005% + lactic acid 0.6%): 987.5 ± 101.1 pg/mg protein
- Intracellular IL1RA Mean ± SD ([3]; GLY 0.005% + lactic acid 0.6%): 25195 ± 1305 pg/mg protein
- Intracellular IL8 Mean ± SD ([3]; GLY 0.005% + lactic acid 0.6%): 78.39 ± 6.350 pg/mg protein
- IL1RA/IL1-alpha ratio Change ([3]; GLY 0.005% + lactic acid 0.6%): +3%
- Intracellular IL1-alpha Change ([3]; GLY 0.005% + lactic acid 0.6%): −5%
- Intracellular IL1RA Change ([3]; GLY 0.005% + lactic acid 0.6%): −2%
- Intracellular IL8 Change ([3]; GLY 0.005% + lactic acid 0.6%): −1%
- IL1RA/IL1-alpha ratio Mean ± SD ([3]; GLY 0.01% + lactic acid 0.6%): 19.1 ± 0.212
- Intracellular IL1-alpha Mean ± SD ([3]; GLY 0.01% + lactic acid 0.6%): 587.0 ± 63.64 pg/mg protein
- Intracellular IL1RA Mean ± SD ([3]; GLY 0.01% + lactic acid 0.6%): 11244 ± 1341 pg/mg protein
- Intracellular IL8 Mean ± SD ([3]; GLY 0.01% + lactic acid 0.6%): 50.17 ± 3.366 pg/mg protein
- IL1RA/IL1-alpha ratio Change ([3]; GLY 0.01% + lactic acid 0.6%): −23%
- Intracellular IL1-alpha Change ([3]; GLY 0.01% + lactic acid 0.6%): −44%
- Intracellular IL1RA Change ([3]; GLY 0.01% + lactic acid 0.6%): −56%
- Intracellular IL8 Change ([3]; GLY 0.01% + lactic acid 0.6%): −37%
- IL1RA/IL1α ratio (in words) ([3]; concentration not given): maintained the IL1RA/IL1α ratio
- Increase in intracellular IL1RA level induced by lactic acid treatment (in words) ([3]; concentration not given): significantly inhibited
- Increase in intracellular IL1α level induced by lactic acid treatment (in words) ([3]; concentration not given): significantly inhibited
- Increase in intracellular IL8 level induced by lactic acid treatment (in words) ([3]; concentration not given): significantly inhibited
